From US11053251B2, “GPR35 modulators” (Prometheus Biosciences, Inc., priority 2019, dated 2021)

Each compound was assayed against Human GPR35 (Homo sapiens, UniProt Q9HC97, S294R) (assay: Alternative Beta-Arrestin Assay (JumpIn 294R Tango U2OS cells, LiveBLAzer-FRET B/G)). Details: Human GPR35 expressing JumpIn 294R Tango U2OS cells, 5 hours treatment.
Chain of Human GPR35 (Q9HC97 whole entry S294R): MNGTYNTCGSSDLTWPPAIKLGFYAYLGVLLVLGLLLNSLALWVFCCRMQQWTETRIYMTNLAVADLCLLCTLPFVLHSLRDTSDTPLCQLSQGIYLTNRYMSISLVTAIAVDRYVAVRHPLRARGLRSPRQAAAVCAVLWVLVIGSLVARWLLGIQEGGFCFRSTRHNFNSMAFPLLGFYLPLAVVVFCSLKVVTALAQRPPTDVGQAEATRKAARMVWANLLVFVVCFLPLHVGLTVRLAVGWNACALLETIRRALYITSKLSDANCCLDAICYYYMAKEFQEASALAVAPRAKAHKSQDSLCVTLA
Assay type: cell-based
Description: Human GPR35 expressing JumpIn (Thermo Fisher) 294R Tango U2OS cells were plated in 384-well format in clear bottom plates at a cell density of 10,000 cells/well and allowed to grow overnight. The next day, cells were treated with serially diluted test compounds for 5 hours. LiveBLAzer-FRET B/G (CCF4-AM) detection reagents were then added and cells were allowed to incubate for 2 hours before reading plates on a BioTek Cytation 5 plate reader. Zaprinast was used as a positive control for dose-response curves. In order to determine EC50 values, data w ere fit to a four-parameter dose-response curves.
In the case of `CCOc1cc(-c2cc(OCC(=O)O)cc(C(=O)O)c2)ccc1-c1nc2[nH]nnc2c(=O)[nH]1` [Compound 219, 5-(Carboxymethoxy)-3′-ethoxy-4′-(7-oxo-6,7-dihydro-3H-[1,2,3]triazolo[4,5-d]pyrimidin-5-yl)-[1,1′-biphenyl]-3-carboxylic acid], the EC50 is reported as no more than 10 µM. Work on `O=c1[nH]c(-c2ccc(-c3nnn[nH]3)cc2O)nc2[nH]nnc12` [Compound 147, 5-(2-hydroxy-4-(1H-tetrazol-5-yl)phenyl)-3,6-dihydro-7H-[1,2,3]triazolo[4,5-d]pyrimidin-7-one] yielded an EC50 of no more than 10 µM. Compound `O=C(O)c1ccc(-c2ccc(-c3nc4[nH]nnc4c(=O)[nH]3)c(OC3CCCC3)c2)nc1` [Compound 231, 6-(3-(Cyclopentyloxy)-4-(7-oxo-6,7-dihydro-3H-[1,2,3]triazolo[4,5-d]pyrimidin-5-yl)phenyl)nicotinic acid] has an EC50 of no more than 10 µM. In the case of `CCOc1cc(-c2cccc(O[C@@H](C)C(=O)O)c2)ccc1-c1nc2[nH]nnc2c(=O)[nH]1` (single isomer, unassigned) [Compound 252], the EC50 is reported as no more than 10 µM. With `CCOc1cc(-c2ccc(NCC(=O)O)cc2)ccc1-c1nc2[nH]nnc2c(=O)[nH]1` [Compound 215, (3′-Ethoxy-4′-(7-oxo-6,7-dihydro-3H-[1,2,3]triazolo[4,5-d]pyrimidin-5-yl)-[1,1′-biphenyl]-4-yl)glycine] the EC50 was no more than 10 µM. `CCOc1cc(-c2ccc(C(=O)O)c(F)c2)ccc1-c1nc2[nH]nnc2c(=O)[nH]1` [Compound 205, 3′-Ethoxy-3-fluoro-4′-(7-oxo-6,7-dihydro-3H-[1,2,3]triazolo[4,5-d]pyrimidin-5-yl)-[1,1′-biphenyl]-4-carboxylic acid] showed an EC50 of no more than 10 µM. For `CCOc1cc(-c2ccc(NC(C)=O)c(C(=O)O)c2)ccc1-c1nc2[nH]nnc2c(=O)[nH]1` [Compound 184, 4-acetamido-3′-ethoxy-4′-(7-oxo-6,7-dihydro-3H-[1,2,3]triazolo[4,5-d]pyrimidin-5-yl)-[1,1′-biphenyl]-3-carboxylic acid], the EC50 was no more than 10 µM. Compound `CCOc1cc(-c2cccc(CC(CC)C(=O)O)c2)ccc1-c1nc2[nH]nnc2c(=O)[nH]1` (single isomer, unassigned) [Compound 240, 2-((3′-ethoxy-4′-(7-oxo-6,7-dihydro-3H-[1,2,3]triazolo[4,5-d]pyrimidin-5-yl)-[1,1′-biphenyl]-3-yl)methyl)butanoic acid] has an EC50 of no more than 10 µM. `CCOc1cc(-c2ccc(OCCN(C)C)c(/C=C/C(=O)O)c2)ccc1-c1nc2[nH]nnc2c(=O)[nH]1` [Compound 319, (E)-3-(4-(2-(dimethylamino)ethoxy)-3′-ethoxy-4′-(7-oxo-6,7-dihydro-3H-[1,2,3]triazolo[4,5-d]pyrimidin-5-yl)-[1,1′-biphenyl]-3-yl)acrylic acid] was tested, and the EC50 was no more than 10 µM. `CCOc1cc(-c2cccc(C(C)(C)C(=O)O)c2)ccc1-c1nc2[nH]nnc2c(=O)[nH]1` [Compound 298, 2-(3′-ethoxy-4′-(7-oxo-6,7-dihydro-3H-[1,2,3]triazolo[4,5-d]pyrimidin-5-yl)-[1,1′-biphenyl]-3-yl)-2-methylpropanoic acid] was tested, and the EC50 was no more than 10 µM. In the case of `CCOc1cc(-c2cccc(CC(=O)O)c2)ccc1-c1nc2[nH]nnc2c(=O)[nH]1` [Compound 295, 2-(3′-ethoxy-4′-(7-oxo-6,7-dihydro-3H-[1,2,3]triazolo[4,5-d]pyrimidin-5-yl)-[1,1′-biphenyl]-3-yl)acetic acid], the EC50 is reported as no more than 10 µM. With `CCOc1cc(-c2cc(O)cc(OC(CC)C(=O)O)c2)ccc1-c1nc2[nH]nnc2c(=O)[nH]1` (stereo not drawn) [Compound 257, 2-((3′-ethoxy-5-hydroxy-4′-(7-oxo-6,7-dihydro-3H-[1,2,3]triazolo[4,5-d]pyrimidin-5-yl)-[1,1′-biphenyl]-3-yl)oxy)butanoic acid] the EC50 was no more than 10 µM. Compound `Nc1cc(-c2nc3[nH]nnc3c(=O)[nH]2)ccc1-c1ccc(C(=O)O)cc1` [Compound 287, 2′-amino-4′-(7-oxo-6,7-dihydro-3H-[1,2,3]triazolo[4,5-d]pyrimidin-5-yl)-[1,1′-biphenyl]-4-carboxylic acid] has an EC50 of no more than 10 µM. Work on `O=C(O)c1ccc(-c2ccc(-c3nc4[nH]nnc4c(=O)[nH]3)cc2[N+](=O)[O-])cc1` [Compound 286, 2′-nitro-4′-(7-oxo-6,7-dihydro-3H-[1,2,3]triazolo[4,5-d]pyrimidin-5-yl)-[1,1′-biphenyl]-4-carboxylic acid] yielded an EC50 of no more than 10 µM. `CCOc1cc(-c2cc(O)cc(O[C@H](CC)C(=O)O)c2)ccc1-c1nc2[nH]nnc2c(=O)[nH]1` (single isomer, unassigned) [Compound 258] gave an EC50 of no more than 10 µM. For `CCOc1cc(-c2cccc(CC(C)(C)C(=O)O)c2)ccc1-c1nc2[nH]nnc2c(=O)[nH]1` [Compound 243, 3-(3′-ethoxy-4′-(7-oxo-6,7-dihydro-3H-[1,2,3]triazolo[4,5-d]pyrimidin-5-yl)-[1,1′-biphenyl]-3-yl)-2,2-dimethylpropanoic acid], the EC50 was no more than 10 µM. With `CCOc1cc(-c2cc(F)cc(O[C@@H](C)C(=O)O)c2)ccc1-c1nc2[nH]nnc2c(=O)[nH]1` (single isomer, unassigned) [Compound 263] the EC50 was no more than 10 µM. Work on `CCOc1cc(-c2ccc(OCCN3CCCC3)c(/C=C(\C)C(=O)O)c2)ccc1-c1nc2[nH]nnc2c(=O)[nH]1` [Compound 299, (E)-3-(3′-ethoxy-4′-(7-oxo-6,7-dihydro-3H-[1,2,3]triazolo[4,5-d]pyrimidin-5-yl)-4-(2-(pyrrolidin-1-yl)ethoxy)-[1,1′-biphenyl]-3-yl)-2-methylacrylic acid] yielded an EC50 of no more than 10 µM. In the case of `CCOc1cc(-c2cc(F)c(F)c(O[C@H](C)C(=O)O)c2)ccc1-c1nc2[nH]nnc2c(=O)[nH]1` (single isomer, unassigned) [Compound 260], the EC50 is reported as no more than 10 µM. Compound `CCOc1cc(-c2cccc(O[C@@H](CC)C(=O)O)c2)ccc1-c1nc2[nH]nnc2c(=O)[nH]1` (single isomer, unassigned) [Compound 254] has an EC50 of no more than 10 µM. `CCOc1cc(-c2ccc(OC)c(CC(C)C(=O)O)c2)ccc1-c1nc2[nH]nnc2c(=O)[nH]1` (stereo not drawn) [Compound 316, 3-(3′-ethoxy-4-methoxy-4′-(7-oxo-6,7-dihydro-3H-[1,2,3]triazolo[4,5-d]pyrimidin-5-yl)-[1,1′-biphenyl]-3-yl)-2-methylpropanoic acid] was tested, and the EC50 was no more than 10 µM. Compound `CCOc1cc(-c2ccc(OC(C)C)c(CC(C)C(=O)O)c2)ccc1-c1nc2[nH]nnc2c(=O)[nH]1` (single isomer, unassigned) [Compound 314, 3-(3′-ethoxy-4-isopropoxy-4′-(7-oxo-6,7-dihydro-3H-[1,2,3]triazolo[4,5-d]pyrimidin-5-yl)-[1,1′-biphenyl]-3-yl)-2-methylpropanoic acid] has an EC50 of no more than 10 µM. Work on `CCOc1cc(-c2cccc(C(=O)O)c2F)ccc1-c1nc2[nH]nnc2c(=O)[nH]1` [Compound 186, 3′-ethoxy-2-fluoro-4′-(7-oxo-6,7-dihydro-3H-[1,2,3]triazolo[4,5-d]pyrimidin-5-yl)-[1,1′-biphenyl]-3-carboxylic acid] yielded an EC50 of no more than 10 µM.

Same assay, conditions: at 50 μM; Table 2
`CCOc1cc(-c2ccc(OCc3ccc(OC)cc3)c(NCC(=O)OC(C)(C)C)c2)ccc1-c1nc2[nH]nnc2c(=O)[nH]1` [Compound 221, tert-butyl (3′-ethoxy-4-((4-methoxybenzyl)oxy)-4′-(7-oxo-6,7-dihydro-3H-[1,2,3]triazolo[4,5-d]pyrimidin-5-yl)-[1,1′-biphenyl]-3-yl)glycinate] was tested, and the “% inhibition at 50 μM” value was 57% inhibition at.
